Values quoted from earlier work as cited in US10676418B2, “Method for producing microparticles from pressurized and heated starting material solution” (M. TECHNIQUE CO., LTD., priority 2016, dated 2020).

Settings: 25° C.; normal temperature and pressure

In the case of COc1cc(/C=C/C(=O)CC(=O)/C=C/c2ccc(O)c(OC)c2)ccc1O [curcumin], the solubility in ethanol is given as “about 0.5 % by weight”.
